Converted amounts (≈) assume the structure as drawn. Square brackets hold non-standard residues; d marks the D form. Ends that are not written are not given here. Peptide text beside a SMILES is read from it.
Experiments:
[1] = test system: SARS-CoV-2 hCoV-19/New Zealand/NZ1_patient/2020; conditions: hCoV-19/New Zealand/NZ1 patient/2020, 72 h
[2] = test system: SARS-CoV-2 hCoV-19/New Zealand/NZ1_patient/2020; conditions: hCoV-19/New Zealand/NZ1 patient/2020, 72 h; remark: listed apart in the source
[3] = test system: SARS-CoV-2 (Wuhan) spike-pseudotyped virus; conditions: for EC50, entry of pseudotyped virus: HEK293T-ACE2 cells incubated with agent prior to pseudotyped virus
[4] = test system: SARS-CoV-2-Nluc; conditions: 72 h
[5] = test system: MDCK cells; conditions: 50 µg/mL
[6] = test system: ELVIRA Flu A cells; conditions: 50 µg/mL
[7] = in vitro; conditions: African green monkey
[8] = in vitro; conditions: African green monkey; human
[9] = test system: SARS-CoV-2 hCoV-19/New Zealand/NZ1_patient/2020; format: cell-based
[10] = test system: SARS-CoV-2 γ spike-pseudotyped virus; format: cell-based; conditions: virus exposed to agent 1 h, then HEK293T-hACE2 cells
[11] = test system: VSV-g-pseudotyped virus; format: cell-based; conditions: virus exposed to agent 1 h, then HEK293T-hACE2 cells
[12] = test system: authentic SARS-CoV-2 virions; conditions: 100 µg/mL, 1 h
[13] = test system: binding of the SARS-CoV-2 RBD to its human ACE2 receptor; conditions: cited from earlier work
[14] = biological target: binding between SARS-CoV-2 Wuhan RBD-Fc and hACE2-AP (UniProt P0DTC2+Q9BYF1); parameters: species or system SARS-CoV-2; human
Sequence of binding between SARS-CoV-2 Wuhan RBD-Fc and hACE2-AP (Q9BYF1 18-740, one chain of several): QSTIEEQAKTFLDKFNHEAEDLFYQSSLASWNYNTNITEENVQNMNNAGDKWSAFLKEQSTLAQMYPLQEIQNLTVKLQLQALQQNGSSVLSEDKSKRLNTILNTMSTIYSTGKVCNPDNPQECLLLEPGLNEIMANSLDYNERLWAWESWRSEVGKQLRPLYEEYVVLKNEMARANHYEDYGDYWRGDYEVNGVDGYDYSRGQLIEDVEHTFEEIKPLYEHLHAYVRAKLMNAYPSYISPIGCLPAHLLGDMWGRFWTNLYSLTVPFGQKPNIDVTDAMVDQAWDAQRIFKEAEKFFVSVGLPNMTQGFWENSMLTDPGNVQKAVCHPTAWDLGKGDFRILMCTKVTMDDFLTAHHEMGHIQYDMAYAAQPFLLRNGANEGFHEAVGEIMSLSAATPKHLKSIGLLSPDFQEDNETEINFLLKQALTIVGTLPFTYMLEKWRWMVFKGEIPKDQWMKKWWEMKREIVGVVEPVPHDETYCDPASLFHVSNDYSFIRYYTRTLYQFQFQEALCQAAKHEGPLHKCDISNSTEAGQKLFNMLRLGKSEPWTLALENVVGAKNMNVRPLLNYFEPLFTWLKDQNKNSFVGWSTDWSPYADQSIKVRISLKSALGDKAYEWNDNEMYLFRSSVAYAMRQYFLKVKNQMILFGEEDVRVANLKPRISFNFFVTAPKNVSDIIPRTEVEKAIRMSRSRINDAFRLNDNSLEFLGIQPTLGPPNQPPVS

Which results are given for `CC[C@@H](C)[C@@H](N)C(=O)N[C@H](Cc1c[nH]c2ccccc12)C(=O)N[C@H](CC(C)C)C(=O)N[C@H](CCCNC(=N)N)C(=O)N[C@H](CC(C)C)C(=O)N[C@H](CCCCN)C(=O)N[C@@H](C(=O)N[C@@H](C(=O)N[C@H](CC(C)C)C(=O)N[C@H](CCCCN)C(=O)N[C@H](CCCNC(=N)N)C(=O)N[C@H](CCCCN)C(N)=O)C(C)C)C(C)C` [D-3006, iwlrlkvvlkrk-NH2] (H-[dI][dW][dL][dR][dL][dK][dV][dV][dL][dK][dR][dK]-NH2)?
EC50 Vero [1]: 1.57 mg/L (≈ 1.01 µM); EC50 VeroE6/TMPRSS2 [2]: 5.37 mg/L (≈ 3.46 µM); EC50, entry of pseudotyped virus [3]: 5.84 mg/L; EC50 [4]: 5.4 mg/L (≈ 3.48 µM); cell viability [5]: did not affect the viability; cell viability [6]: did not affect the viability; CC50 [7]: 430 mg/L; CC50 at 48 h [8]: > 100 mg/L

For `CC[C@@H](C)[C@@H](NC(=O)[C@@H](CCCCN)NC(=O)[C@@H](CC(C)C)NC(=O)[C@H](N)C(C)C)C(=O)N[C@H](CCCCN)C(=O)N[C@@H](C(=O)N[C@H](CCCCN)C(=O)N[C@@H](C(=O)N[C@H](Cc1c[nH]c2ccccc12)C(=O)N[C@@H](C(=O)N[C@@H](C(=O)N[C@H](CCCCN)C(N)=O)C(C)C)C(C)C)[C@H](C)CC)C(C)C` [D-3007, vlkikvkiwvvk-NH2] (H-[dV][dL][dK][dI][dK][dV][dK][dI][dW][dV][dV][dK]-NH2), which “EC50 Vero” value [1] is on record?
The value was 23.86 mg/L (≈ 16.4 µM).

And the “EC50 VeroE6/TMPRSS2” value [2]?
Its value is 30.53 mg/L (≈ 21 µM).

And the CC50 [7]?
Its CC50 is 708 mg/L.

For `CC[C@@H](C)[C@@H](NC(=O)[C@@H](C)NC(=O)[C@@H](CCCNC(=N)N)NC(=O)[C@@H](Cc1c[nH]c2ccccc12)NC(=O)[C@@H](CCC(N)=O)NC(=O)[C@H](N)C(C)C)C(=O)N[C@H](CCCNC(=N)N)C(=O)N[C@@H](C(=O)N[C@H](CCCNC(=N)N)C(=O)N[C@@H](C(=O)N[C@@H](C(=O)N[C@H](CCCNC(=N)N)C(N)=O)[C@H](C)CC)C(C)C)C(C)C` [DJK-5, vqwrairvrvir-NH2] (H-[dV][dQ][dW][dR][dA][dI][dR][dV][dR][dV][dI][dR]-NH2), which “EC50 Vero” value [1] is on record?
The value was 25.16 mg/L (≈ 16.2 µM).

And the “EC50 VeroE6/TMPRSS2” value [2]?
The value was 29.31 mg/L (≈ 18.9 µM).

And the CC50 [7]?
Its CC50 is 517 mg/L.

What does the source list for `CCC(CC)COC(=O)[C@H](C)N[P@](=O)(OC[C@H]1O[C@@](C#N)(c2ccc3c(N)ncnn23)[C@H](O)[C@@H]1O)Oc1ccccc1` [Remdesivir, remdesivir, reference compound]?
inhibition of SARS-CoV-2 replication [9]: 98%; CC50 [7]: > 100 µM

For `CC[C@H](C)[C@H](NC(=O)CN)C(=O)NCC(=O)N[C@@H](C)C(=O)N[C@H](C(=O)N[C@@H](CC(C)C)C(=O)N[C@@H](CCCCN)C(=O)N[C@H](C(=O)N[C@@H](CC(C)C)C(=O)N[C@H](C(=O)N[C@H](C(=O)NCC(=O)N[C@@H](CC(C)C)C(=O)N1CCC[C@H]1C(=O)N[C@@H](C)C(=O)N[C@@H](CC(C)C)C(=O)N[C@H](C(=O)N[C@@H](CO)C(=O)N[C@@H](Cc1c[nH]c2ccccc12)C(=O)N[C@H](C(=O)N[C@@H](CCCCN)C(=O)N[C@@H](CCCNC(=N)N)C(=O)N[C@@H](CCCCN)C(=O)N[C@@H](CCCNC(=N)N)C(=O)N[C@@H](CCC(N)=O)C(=O)N[C@@H](CCC(N)=O)C(N)=O)[C@@H](C)CC)[C@@H](C)CC)[C@@H](C)O)[C@@H](C)O)C(C)C)C(C)C` [melittin], which NT50 [10] is on record?
The NT50 was 11.6 µg/mL.

What about the NT50 [11] of the same molecule?
Its NT50 is 5.51 µg/mL.

And the “mean number of intact virus particles per field” value [12]?
The value was 1.3.

And the “EC50, entry of pseudotyped virus” value [3]?
Its value is 13.2 mg/L.

What about the NT50 ([3]; agent incubated with pseudotyped virus 1 h, then HEK293T-hACE2 cells) of the same molecule?
The NT50 was 12.5 µg/mL.

What about the viability [8] of the same molecule?
The viability was 51.7%.

With HNP1 as the molecule, how does the “affinity, interference with binding of SARS-CoV-2 RBD to human ACE2” value [13] read?
Its value is 160 nM.

For LL-37, which “affinity, interference with binding of SARS-CoV-2 RBD to human ACE2” value [13] is on record?
The value was 25.5 nM.

Which “EC50 Vero” value [1] does the source give for VRLIVAVRIWRR-NH2 [IDR-1018] here?
Its value is 21.79 mg/L.

What about the “EC50 VeroE6/TMPRSS2” value [2] of the same molecule?
Its value is 28.72 mg/L.

And the CC50 [7]?
Its CC50 is 686 mg/L.

With shACE2 as the molecule, how does the “inhibition of SARS-CoV-2 replication” value [9] read?
The value was 72%.

And the “IC50, inhibition of hACE2-RBD binding” value [14]?
The value was 6.6 mg/L.

And the NT50 [11]?
Its NT50 is greater than 100 µg/mL.

— article PMC12326988, “Synthetic host defense peptide inhibits SARS-CoV-2 replication in vitro” (Antimicrobial Agents and Chemotherapy, 2025)
